Results on five molecules are retold here after ChEMBL document CHEMBL3044900, “Synthesis of pregnenolonedanazolethylendiamine conjugate: relationship between descriptors log P, , R m, and V m and its antibacterial activity in S. aureus and V. cholerae” (2011).

Values after ≈ are worked out from the molar mass of the structure shown.

One test relates to Staphylococcus aureus. The test can be described thus: Antibacterial activity against Staphylococcus aureus ATCC 25923 incubated for 24 hr followed by compound washout measured after 24 hr by dilution method. The class given is functional.
For another test, the system named is Vibrio cholerae. The test can be described thus: Antibacterial activity against Vibrio cholerae ATCC 14035 incubated for 24 hr followed by compound washout measured after 24 hr by dilution method. The class given is functional.

The term MIC denotes the smallest concentration in the dilution series that meets the test's criterion for growth inhibition. Higher therefore signals a need for much substance. As for `C#C[C@@]1(OC(=O)CCC(=O)O[C@H]2CC[C@@]3(C)C(=CC[C@H]4[C@@H]5CC[C@H](C(C)=O)[C@@]5(C)CC[C@@H]43)C2)CC[C@H]2[C@@H]3CCC4=C(CNCCN)c5oncc5C[C@]4(C)[C@H]3CC[C@@]21C`, the MIC in the test on Staphylococcus aureus (ATCC 25923, 24 h) came to 1.23 µM (≈ 0.994 µg/mL); against Vibrio cholerae (ATCC 14035, 24 h), 1.23 µM (≈ 0.994 µg/mL).
`CO/N=C(\C(=O)N[C@@H]1C(=O)N2C(C(=O)O)=C(COC(C)=O)CS[C@H]12)c1csc(N)n1` [CEFOTAXIME]: the MIC stood at 0.261 µM (≈ 0.119 µg/mL) against Staphylococcus aureus (ATCC 25923, 24 h) and 0.523 µM (≈ 0.238 µg/mL) against Vibrio cholerae (ATCC 14035, 24 h).
`O=C(O)c1cn(C2CC2)c2cc(N3CCNCC3)c(F)cc2c1=O` [CIPROFLOXACIN]: the MIC came out at 0.377 µM (≈ 0.125 µg/mL) in the test with Staphylococcus aureus (ATCC 25923, 24 h) and 3.01 µM (≈ 0.997 µg/mL) against Vibrio cholerae (ATCC 14035, 24 h).
As for `C#C[C@@]1(OC(=O)CCC(=O)O[C@H]2CC[C@@]3(C)C(=CC[C@H]4[C@@H]5CC[C@H](C(C)=O)[C@@]5(C)CC[C@@H]43)C2)CC[C@H]2[C@@H]3CCC4=Cc5oncc5C[C@]4(C)[C@H]3CC[C@@]21C` [DANAZOL-PREGNENOLONE], the MIC amounted to 0.663 µM (≈ 0.488 µg/mL) against Staphylococcus aureus (ATCC 25923, 24 h) and 1.32 µM (≈ 0.972 µg/mL) in the test on Vibrio cholerae (ATCC 14035, 24 h).
Take GENTAMICIN: the MIC in the test with Staphylococcus aureus was found to be 0.274 µM; in the test with Vibrio cholerae it was 0.0134 µM.
